Reference: patent publication US20060099712A1, “Correlation of anti-cancer activity of dyes with redox potentials” (Eastman Kodak Company, priority 2004, published 2006)
Converted amounts (≈) assume the structure as drawn.

Columns and labels:
[1] = test system: MCF-7 Human Breast Carcinoma; assay: Initial in vitro screening, breast carcinoma cells; type: cell-based; details: for Selectivity: IC50 CV-1 / IC50 cell line 3 (breast carcinoma); for IC50 (concentration at which 50% of the cells of the culture are killed) / IC50: cell line 3, MCF-7 human breast carcinoma, unit from method; for IC50: MCF7, read-out: IC50 (concentration at which 50% of the cells of the culture are killed)
From the text: (§1) Other publications have shown that some cyanine dyes show anti-cancer activity. See I. Minami, Y. Kozai, H. Nomura and T. Tashiro, Chem. Phar. Bull. 30:3106 (1982); W. M. Anderson, D. L. Delinick, L. Benninger, J. M. Wood, S. T. Smiley and L. B. Chen, Biochemical Pharmacology, 45:691 (1993). […] (See L. G. S. Brooker, L. A. Sweet, Science, 105, (1947) and I. Minami, Y. Kozai, H. Nomura, T. Tashiro, Chem. Pharm. Bull., 30,3106 (1982) on chemotherapeutic investigations of cyanine dyes.) Table I lists initial in vitro screening results in various cell lines and a comparison with Adriamycin, which is a widely used chemotherapeutic agent.
(§2) Description of Cell Line • 1. CV-1 Normal Monkey Kidney Epithelial (control) • 2. CX-1 Human Colon Carcinoma • 3. Human Breast Carcinoma • 4. Human Pancreatic Carcinoma • 5. Human Bladder Carcinoma • 6. Human Lung Carcinoma • 7. Human Squamous Cell Carcinoma • 8. Human Adrenal Cortex Carcinoma

[2] = test system: CRL 1420 Human Pancreatic Carcinoma; assay: Initial in vitro screening, pancreatic carcinoma cells; type: cell-based; details: for Selectivity: IC50 CV-1 / IC50 cell line 4 (pancreatic carcinoma); for IC50: read-out: IC50 (concentration at which 50% of the cells of the culture are killed)
From the text: as §1, §2

[3] = test system: EJ Human Bladder Carcinoma; assay: Initial in vitro screening, bladder carcinoma cells; type: cell-based; details: for Selectivity: IC50 CV-1 / IC50 cell line 5 (bladder carcinoma); for IC50 (concentration at which 50% of the cells of the culture are killed) / IC50: cell line 5, EJ human bladder carcinoma, unit from method; for IC50: read-out: IC50 (concentration at which 50% of the cells of the culture are killed)
From the text: as §1, §2

[4] = test system: SCC 68 Human Squamous Cell Carcinoma; assay: Initial in vitro screening, squamous cell carcinoma cells; type: cell-based; details: for Selectivity: IC50 CV-1 / IC50 cell line 7 (squamous cell carcinoma); for IC50: read-out: IC50 (concentration at which 50% of the cells of the culture are killed)
From the text: as §1, §2

[5] = Electrochemical oxidation potential measurement, SHACV / fast scan CV; type: physicochemical; details: Table XIX; oxidation potential vs. Ag/AgCl; in V (unit assumed)
From the text: If a published reduction potential is not available, suitable techniques for measuring reduction potential are available. Accurate electrochemical oxidation and reduction potentials for these organic dyes can be measured by the techniques of fast scan cyclic voltommetry (CV) or second harmonic ac voltommetry (SHACV). SHACV measurements are made as described by Lenhard in the Journal of Imaging Science volume 30, 1986 pp 27-35 using a commercially available (Princeton Applied Research Corp.) potentiostat in conjunction with voltage programmer, a conventional lock-in amplifier, and a low-distortion oscillator. The SHACV method utilizes an ac voltage waveform (of a frequency greater than or equal to 400 hz) that is superimposed on a DC potential ramp. On the other hand, the measurement of the oxidation or reduction potential by the CV method utilizes a (high frequency) triangular voltage waveform. The general procedures for measuring potentials by this method have been described by Wightman in Analytical Chemistry, 1984, vol. 56, pp524 and Journal of Physical Chemistry, 1984, vol. 88, pp3915. The specific application of this technique to the measurement of cyanine dye potentials has been reported by Nomura and Okazaki, Chemistry Letters, 1990, pp2231-2234. Commercial instrumentation especially designed for fast scan (i.e., high frequency) CV is available. It is noteworthy that because of the complicated nature of many of the cyanine dyes, electrochemical reactions, conventional slow scan cyclic voltommetry or polarography methods (as described by R. Large in Photographic Sensitivity, R. Cox, ed., Academic Press, New York, 1973, pp 241-263) provide only approximate values for oxidation and reduction potentials. Errors as large as 0.4 V from the true potential can be obtained by using slow scan CV or electrochemical methods.
The procedure for measuring the oxidation or reduction potential by the SHACV or fast scan CV method utilizes solutions of acetonitrile (or similar nonaqueous solvent) with added tetrabutylammonium tetrafluoroborate TBABF4 at a concentration of 0.1 M and ca. 5×10^−4 M of the cyanine, oxonol, or merocyanine dye. For measurement of the reduction potential the solution must be deaerated with argon prior to examination. The preferred working electrode is a Pt disk (ca. 0.02 cm^2) that is polished with 1 μm diamond paste, rinsed with water, and dried before each experiment. The reference electrode is a NaCl saturated calomel electrode. The cell and reference electrodes are maintained at 22 C. A value of 40 mV is added to the measured potentials to convert the number to that corresponding to an Ag/AgCl reference electrode. If a solvent other than acetonitrile is used then the measured potential must be referenced to a standard organic redox system such as ferrocene and corrected accordingly.
The procedure for measuring the oxidation or reduction potential by the SHACV method utilizes solutions of acetonitrile (or similar nonaqueous solvent) with added tetrabutylammonium tetrafluoroborate TBABF4 at a concentration of 0.1 M and ca. 5×10^−4 M of the cyanine, oxonol, or merocyanine dye. […] A value of 40 mV is added to the measured potentials to convert the number to that corresponding to an Ag/AgCl reference electrode. If a solvent other than acetonitrile is used then the measured potential must be referenced to a standard organic redox system such as ferrocene and corrected accordingly.

[6] = cell line 4, CRL 1420 human pancreatic carcinoma, unit from method
[7] = cell line 7, SCC 68 human squamous cell carcinoma, unit from method

Eox [5]	SMILES	Selectivity [1]	IC50 (concentration at which 50% of the cells of the culture are killed) [1]	Selectivity [2]	IC50 (concentration at which 50% of the cells of the culture are killed) [2, 6]	Selectivity [3]	IC50 (concentration at which 50% of the cells of the culture are killed) [3]	Selectivity [4]	IC50 (concentration at which 50% of the cells of the culture are killed) [4, 7]	IC50 [1]	IC50 [2, 6]	IC50 [3]	IC50 [4, 7]
1.015	CCN1/C(=C/C=C/c2sc3cc4ccccc4cc3[n+]2CC)Sc2cc3ccccc3cc21 [Dye D-109]	–	–	–	–	–	–	–	–	–	–	–	–
1.145	CCN1C(=CC=Cc2sc3cc4ccccc4nc3[n+]2CC)Sc2cc3ccccc3nc21 [Dye D-150]	100	–	100	–	300	–	30	–	0.03 µg/mL	0.03 µg/mL	0.01 µg/mL	0.1 µg/mL
1.015	CCN1/C(=C/C=C/c2sc3cc4ccccc4cc3[n+]2CC)Sc2cc3ccccc3cc21 [Dye D-160]	–	–	–	–	–	–	–	–	< 0.005 µg/mL	< 0.005 µg/mL	< 0.005 µg/mL	< 0.005 µg/mL

Continued, compound first:

SMILES	Eox [5]	Selectivity [1]	IC50 (concentration at which 50% of the cells of the culture are killed) [1]	Selectivity [2]	IC50 (concentration at which 50% of the cells of the culture are killed) [2, 6]	Selectivity [3]	IC50 (concentration at which 50% of the cells of the culture are killed) [3]	Selectivity [4]	IC50 (concentration at which 50% of the cells of the culture are killed) [4, 7]	IC50 [1]	IC50 [2, 6]	IC50 [3]	IC50 [4, 7]
CCN1C(=CC=Cc2sc3cc4ccccc4cc3[n+]2CC)Sc2cc3ccccc3cc21 [AC-2]	–	>60	<.005 µg/mL	>60	<.005 µg/mL	>60	<.005 µg/mL	>60	<.005 µg/mL	–	–	–	–
COc1cccc2c1C(=O)c1c(O)c3c(c(O)c1C2=O)C[C@@](O)(C(=O)CO)C[C@@H]3O[C@H]1C[C@H](N)[C@H](O)[C@H](C)O1 [Adriamycin, reference compound]	–	16	–	13	–	8	–	10	–	0.05 µg/mL (≈ 0.092 µM)	0.06 µg/mL (≈ 0.11 µM)	0.1 µg/mL (≈ 0.184 µM)	0.08 µg/mL (≈ 0.147 µM)
CCN1/C(=C/C=C/c2sc3ccccc3[n+]2CC)Sc2ccccc21.[I-] [Dye D-101]	0.902	13.3	0.03 µg/mL	100	–	>100	<0.005 µg/mL	13.3	–	–	–	–	–
CCN1/C(=C\C=C\C2=[N+](CC)c3ccccc3C2(C)C)C(C)(C)c2ccccc21 [Dye D-103]	1.088	–	–	–	–	–	–	–	–	–	–	–	–
